Values of other authors, collected in US9267111B2, “Methods of treating female subjects in need of in vitro fertilization” (The General Hospital Corporation, priority 2004, dated 2016).

System: germ line stem cells and spermatogonia in irradiated testicular tissue
Settings: versus untreated tissues

## CCCCCCCCCCCCC/C=C/[C@@H](O)[C@@H](N)COP(=O)(O)O [S1P, Sphingosine-1-phosphate]
  numbers of primary spermatocytes and spermatogonia: higher than untreated tissues
